In brackets after ≈: the same amount, converted by molar mass.
How the values were obtained:
[1] = Volume of distribution at steady state in Sprague-Dawley rat at 3 mg/kg,po or 1 mg/kg,iv by LC-MS/MS analysis; assay type: ADME, organism-based; conditions: in vivo
[2] = Plasma protein binding in cynomolgus monkey assessed as unbound fraction incubated for 4 hrs by LC/MS/MS analysis; assay type: ADME, cell-free, Macaca fascicularis
CYP1A2 = target: T1, CYP1A2 (Homo sapiens, UniProt P05177); experiment: Activation of CYP1A2 in human hepatocyte using phenacetin as substrate preincubated for 5 days followed by substrate addition and measured after 1 hr by LC-MS/MS analysis relative to control; assay type: ADME, cell-based; conditions: hepatocytes, probe phenacetin, time 121 hrs
T1 sequence (P05177 whole entry): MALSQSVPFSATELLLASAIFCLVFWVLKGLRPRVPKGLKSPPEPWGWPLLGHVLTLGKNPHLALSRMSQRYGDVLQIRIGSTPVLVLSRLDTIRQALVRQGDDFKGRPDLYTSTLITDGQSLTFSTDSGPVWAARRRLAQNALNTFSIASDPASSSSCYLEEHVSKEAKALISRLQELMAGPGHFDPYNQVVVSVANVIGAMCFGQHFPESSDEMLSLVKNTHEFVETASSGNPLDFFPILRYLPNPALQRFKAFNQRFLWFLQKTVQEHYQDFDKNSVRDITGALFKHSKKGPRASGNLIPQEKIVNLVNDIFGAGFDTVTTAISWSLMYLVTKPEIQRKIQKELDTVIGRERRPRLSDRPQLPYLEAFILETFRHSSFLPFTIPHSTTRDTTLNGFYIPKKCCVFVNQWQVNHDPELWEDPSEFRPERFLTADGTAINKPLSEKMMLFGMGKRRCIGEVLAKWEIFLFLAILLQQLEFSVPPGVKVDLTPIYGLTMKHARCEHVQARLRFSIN

[3] = Cmax in Sprague-Dawley rat at 3 mg/kg,po by LC-MS/MS analysis; assay type: ADME, organism-based; parameters: dose 3 mg/kg, route po; conditions: in vivo
Rattus norvegicus = experiment: Antipsychotic activity in amphetamine-induced hyperlocomotion activity in rat assessed as reversal of amphetamine-induced hyperlocomotion at 1 to 10 mg/kg, po preincubated for 30 mins followed by amphetamine addition and measured after 60 mins by open field test relative to control; assay type: functional; conditions: dose 1-10 mg/kg, time 90 min, 1.5 h
[4] = Elimination half life in Cynomolgous monkey at 0.2 mg/kg,iv by LC-MS/MS analysis; conditions: cynomolgus monkey, in vivo, read-out: beta t1/2 (converted)
[5] = Terminal unbound plasma concentration in rat model of amphetamine-induced hyperlocomotion activity at 1 to 10 mg/kg, po measured after 1.5 hrs; assay type: ADME, organism-based; conditions: in vivo, dose 1-10 mg/kg
[6] = Cmax in Beagle dog at 3 mg/kg,po by LC-MS/MS analysis; assay type: ADME, organism-based, Canis lupus familiaris; parameters: dose 3 mg/kg, route po; conditions: in vivo
CYP3A4 (printed CYP34A) = CYP3A4 (printed CYP34A) (Homo sapiens, UniProt P08684); experiment: Activation of CYP34A in human hepatocyte using midazolam as substrate preincubated for 5 days followed by substrate addition and measured after 1 hr by LC-MS/MS analysis relative to control; assay type: ADME, cell-based; conditions: hepatocytes, probe midazolam, time 121 hrs
Sequence of CYP3A4 (printed CYP34A) (P08684 whole entry): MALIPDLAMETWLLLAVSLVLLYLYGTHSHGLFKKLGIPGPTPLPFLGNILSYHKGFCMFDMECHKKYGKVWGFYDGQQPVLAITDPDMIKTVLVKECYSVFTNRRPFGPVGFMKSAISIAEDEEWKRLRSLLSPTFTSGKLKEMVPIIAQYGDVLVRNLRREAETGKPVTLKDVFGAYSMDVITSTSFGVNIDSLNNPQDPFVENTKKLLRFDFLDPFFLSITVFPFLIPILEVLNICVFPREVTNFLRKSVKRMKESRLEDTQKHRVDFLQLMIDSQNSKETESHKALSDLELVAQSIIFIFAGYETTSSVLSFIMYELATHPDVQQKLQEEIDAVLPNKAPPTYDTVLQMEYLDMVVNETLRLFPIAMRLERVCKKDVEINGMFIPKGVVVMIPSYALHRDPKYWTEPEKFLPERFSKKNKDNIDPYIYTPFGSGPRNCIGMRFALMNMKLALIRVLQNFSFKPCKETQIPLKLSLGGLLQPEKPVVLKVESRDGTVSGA

[7] = Volume of distribution at steady state in Beagle dog at 3 mg/kg,po or 1 mg/kg,iv by LC-MS/MS analysis; assay type: ADME, organism-based, Canis lupus familiaris; conditions: in vivo
[8] = Oral bioavailability in Sprague-Dawley rat at 3 mg/kg by LC-MS/MS analysis; assay type: ADME, organism-based; conditions: in vivo
[9] = Positive allosteric modulator activity at cynomolgus monkey M2 receptor expressed in CHO cells co-expressing Gqi5 in presence of EC20 concentration of acetylcholine by calcium mobilization assay; assay type: cell-based; conditions: Macaca fascicularis
Cytochrome P450 3A4 = Cytochrome P450 3A4 (Homo sapiens, UniProt P08684); experiment: Inhibition of CYP34A in human liver microsomes using midazolam as substrate incubated for 15 mins in presence of NADPH by LC/MS/MS analysis; assay type: ADME, Microsome
Sequence of Cytochrome P450 3A4 (P08684 whole entry): as above

Cytochrome P450 1A2 = target: T2, Cytochrome P450 1A2 (Homo sapiens, UniProt P05177); experiment: Inhibition of CYP1A2 in human liver microsomes using phenacetin as substrate incubated for 15 mins in presence of NADPH by LC/MS/MS analysis; assay type: ADME, Microsome
T2 sequence (P05177 whole entry): T1 sequence (P05177 whole entry)

[10] = target: T3, Muscarinic acetylcholine receptor M4 (Homo sapiens) (UniProt P08173); experiment: Positive allosteric modulator activity at human M4 receptor expressed in CHO cells co-expressing Gqi5 assessed as maximal response to ACh by calcium mobilization assay relative to contol; assay type: cell-based; conditions: filed as positive allosteric modulator
T3 sequence (whole entry): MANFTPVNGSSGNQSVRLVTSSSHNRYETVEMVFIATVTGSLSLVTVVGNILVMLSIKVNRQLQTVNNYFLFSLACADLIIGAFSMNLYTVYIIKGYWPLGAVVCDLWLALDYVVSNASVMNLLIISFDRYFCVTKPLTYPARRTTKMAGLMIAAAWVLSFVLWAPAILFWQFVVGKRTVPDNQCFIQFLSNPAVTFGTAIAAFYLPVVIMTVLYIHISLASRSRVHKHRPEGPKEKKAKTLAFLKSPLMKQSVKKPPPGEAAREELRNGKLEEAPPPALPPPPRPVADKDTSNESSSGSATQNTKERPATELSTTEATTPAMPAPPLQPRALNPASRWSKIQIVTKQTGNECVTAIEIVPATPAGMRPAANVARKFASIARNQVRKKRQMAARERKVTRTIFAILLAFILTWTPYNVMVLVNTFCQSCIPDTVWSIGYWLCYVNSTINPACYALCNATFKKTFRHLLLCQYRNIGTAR

[11] = AUC (0 to infinity) in Beagle dog at 3 mg/kg,po by LC-MS/MS analysis; assay type: ADME, organism-based, Canis lupus familiaris; parameters: dose 3 mg/kg, route po; conditions: in vivo
[12] = Ratio of unbound drug concentration in Beagle dog brain to plasma at 3 mg/kg, po by LC-MS/MS analysis; assay type: ADME, organism-based, Canis lupus familiaris; conditions: read-out: K(p,uu,brain)
[13] = Fraction unbound in rat brain incubated for 6 hrs by LC/MS/MS analysis; assay type: ADME, tissue-based
CHO = experiment: Positive allosteric modulator activity at dog M4 receptor expressed in CHO cells co-expressing Gqi5 assessed as maximal response to ACh by calcium mobilization assay relative to contol; assay type: cell-based; conditions: Canis lupus familiaris, filed as positive allosteric modulator
[14] = Aqueous solubility of compound at pH 7.4; assay type: physicochemical; conditions: buffer

Vdss [1]: 1.5 L/kg
fraction unbound at 4 h [2]: 0.091
Emax at 1 h (CYP1A2): ≤ 1%
Cmax [3]: 1200 nM
half-life [4]: 28.8 min
Cp(f) [5]: 0.06 µM
Cmax [6]: 220 nM
Emax at 1 h (CYP3A4 (printed CYP34A)): ≤ 1%
Vdss [7]: 1.5 L/kg
bioavailability [8]: 79%
EC50 [9]: > 30 µM
IC50 (Cytochrome P450 3A4): > 30 µM
IC50 (Cytochrome P450 1A2): > 30 µM
Activity [10]: 80.6%
Activity ([10]; tested as the 2H-labelled form): 87.1%
AUC(0-inf) [11]: 0.59 µM·h
Kp uu [12]: 0.84
fraction unbound at 6 h [13]: 0.037
solubility [14]: 2.4 µM (≈ 0.865 µg/mL)
SMILES: COc1ccc(CNC(=O)c2sc3nnc(C)c(C)c3c2N)cc1F
Activity (Rattus norvegicus): 43.2%
Activity (CHO): 49%
